# Measured values as given in patent publication US12122756B2, “Biflavone compound against I-type herpes simplex virus, and preparation method therefor and use thereof” (priority 2022, dated 2024).
# Marks after values point to notes of the source that are not given here.
# System: Vero cells
# Experiment: Cytotoxic assay of tested drugs against Vero cells (CCK-8)
# Format: cell-based, African green monkey
# Method: 3. Cytotoxic assay of tested drugs against Vero cells: Vero cells were seed in a 96 well plate at 3×10^4 cells/well. The next day, after growing into a monolayer, the test drug was diluted to obtain 8-9 concentrations and added to each well. Meanwhile, a normal control group was established, with 4 replicate wells for each group. After 72 hours, the toxicity of the test drug to Vero cells was measured using CCK-8 assay, and the highest non-toxic concentration and half toxic concentration (TC50) of the drug on the cells were calculated.
compound,measurement,setting,value
"COc1c(O)c(Cc2c(O)c(OC)c(O)c3c(=O)c(-c4ccc(O)c(S(=O)(=O)[O-])c4)coc23)c2occ(-c3ccc(O)c(S(=O)(=O)[O-])c3)c(=O)c2c1O.[Na+].[Na+] [Compound 2, 8,8″-methylene-di-(sodiumtectorigenin-5′-sulphonate)]",growth inhibition rate (%) on Vero cells,"1st (highest) concentration (971, 1600, 2620, 390 μg·ml^−1 for Compounds 1-4), 72 h",41.92** %
same,growth inhibition rate (%) on Vero cells,"2nd concentration, 50% serial dilution from column-head concentration, 72 h",29.02** %
same,growth inhibition rate (%) on Vero cells,"3rd concentration, 50% serial dilution from column-head concentration, 72 h",11.69** %
same,growth inhibition rate (%) on Vero cells,"4th concentration, 50% serial dilution from column-head concentration, 72 h",−4.55%
same,growth inhibition rate (%) on Vero cells,"5th concentration, 50% serial dilution from column-head concentration, 72 h",5.46%
same,growth inhibition rate (%) on Vero cells,"6th concentration, 50% serial dilution from column-head concentration, 72 h",−4.74%
same,growth inhibition rate (%) on Vero cells,"7th concentration, 50% serial dilution from column-head concentration, 72 h",−12.11%
same,growth inhibition rate (%) on Vero cells,"8th concentration, 50% serial dilution from column-head concentration, 72 h",−8.20%
same,growth inhibition rate (%) on Vero cells,"9th concentration, 50% serial dilution from column-head concentration, 72 h",−13.88%
same,TC50 on Vero cells,"72 h, CCK-8, Probit regression",1749.982 µg/mL
same,toxicity (in words),Vero cells,lower toxicity
same,TC50,Vero cells (Table 5),1749.982 µg/mL
same,highest non-toxic concentration,"Vero cells, 72 h, CCK-8",382.804 µg/mL
